Measurements published in patent US9549905B2, “Treatment of inflammatory and infectious skin disorders” (The Regents of the University of California, priority 2011, dated 2017).
Several values for one entry are separate records, joined by “and”; a condition that tells them apart may be missing. Equal values may be shown once.

Tests used:
[1] = tested on: IL-12 secretion by primary human monocytes; experiment: Cytokine IL-12 assay in monocytes stimulated with P. acnes sonicate; type: cell-based; conditions: compared with 1% DMSO / untreated
Text: FIG. 3A. Cytokine IL-12 Assay.
The anti-inflammatory properties of resveratrol, benzoyl peroxide and the combination of resveratrol and benzoyl peroxide are exemplified by the cytokine IL-12 assay. […] To address this, we next investigated the cytotoxic effects of the various treatment groups.
To address this, we next investigated the cytotoxic effects of the various treatment groups.

[2] = tested on: primary human monocytes; experiment: MTS cytotoxicity assay; type: cell-based; conditions: for monocytes killed: 10 μg/mL
Experimental: FIG. 3B. Cytotoxicity Assay. […] The percentage of cells still viable after 16 hour incubation (compared to 1% DMSO control) were assessed (Y-axis) by measuring absorbance of the sample, which is proportional to the number of viable cells.
The cytotoxicity of resveratrol, benzoyl peroxide, and the combination of resveratrol and benzoyl peroxide was also assessed. (see FIG. 3B) We analyzed the cell viability of human monocytes using the MTS cytotoxicity assay. […] The direct cell cytotoxicity of benzoyl peroxide may explain the decrease in IL-12 activity, more a result of direct cell death, than actual anti-inflammatory properties of benzoyl peroxide.
We analyzed the cell viability of human monocytes using the MTS cytotoxicity assay.

[3] = tested on: P. acnes; experiment: P. acnes growth inhibition, 48 hour incubation and plating at different dilutions; type: cell-based, Propionibacterium acnes
Experimental: Serial dilutions of P. acnes plated without treatment provided qualitative comparisons to experimental groups treated with RES. Significant growth inhibition of P. acnes was first noted at 50 μg/mL and was dose dependent. […] (FIG. 2A).

[4] = tested on: Propionibacterium acnes ATCC strain 6919; experiment: Colony Forming Unit (CFU) assay of P. acnes over 10 days; type: cell-based; conditions: for bactericidal activity in comparison at equal concentration: 75 μg/mL, FIG. 2D; for antimicrobial activity over time (words): CFU assay, irrespective of concentration
Experimental: FIG. 2A. […] Bacterial growth was assessed in terms of the growth factor of P. acnes (Y-axis), determined by the change in the number of bacteria compared to baseline control (set at 1 on Day 0). Concentrations were obtained over a 10-day period and plotted logarithmically. FIG. 2B. Colony Forming Unit (CFU) assays of P. acnes incubated with Benzoyl Peroxide (BPO). FIG. 2C. […] FIG. 2D. […] Having described the invention in general terms, the following specific example is offered for purpose of illustration and for illustration only, and no intention to limit the invention is to be inferred there from. […] Resveratrol and benzoyl peroxide were obtained from Sigma-Aldrich St. Louis, Mo. […] Propionibacterium acnes ATCC […] strain 6919 was grown anaerobically at 37° C. in Reinforced Clostridial Media (Oxoid) for 3 days and collected in the exponential phase of growth by centrifugation. Bacteria were washed with pH 7 sodium phosphate buffer supplemented by 0.03% Trypticase Soy Media and quantified by reading with a spectrophotometer at 600 nm and applying a conversion of ˜1×10^8 bacteria=1 absorbance unit. […] Samples were incubated anaerobically at 37° C. for intervals of 1, 2, 3, 7, and 10 days and then plated on brucella agar with 5% sheep blood supplemented with hemin and vitamin K (Remel). […] The results were plotted logarithmically as multiples of the initial concentration, which was designated as 1 at Day 0.

[5] = tested on: P. acnes; experiment: Transmission electron microscopy of P. acnes; type: cell-based, Propionibacterium acnes; conditions: 1 mg/mL, 24 hours
Text: FIG. 4A. Electron Microscopy of P. acnes control without stimulus. […] Samples were visualized at 80 kV on a JEOL 100CX electron microscope. Bacteria were magnified according to the scale indicated below the main image, with higher magnification images located in the lower left inset.
This implies cellular lysis and death of the majority of bacterium, leaving only remaining unaffected bacteria to replicate and grow.
Resveratrol induced structural changes in the cell membrane of P. acnes. […] This implies cellular lysis and death of the majority of bacterium, leaving only remaining unaffected bacteria to replicate and grow.

Structure (SMILES) | concentration from which IL-12 secretion was diminished [1] | monocytes killed ([2]; human, 16 h) | growth equivalent to dilution of untreated P. acnes plates ([3]; 50 μg/mL, 48 hours) | concentration at which significant growth inhibition of P. acnes was first noted ([3]; 48 hours incubation, about 1.33×10^6 bacteria) | bactericidal activity in comparison at equal concentration ([4]; 10-day period) | concentrations with sustained and dose dependent bactericidal effect ([4]; 10-day period, FIG. 2A) | antimicrobial activity over time (words) [4] | structural changes of P. acnes [5] | monocytes killed ([2]; 16 hour incubation, relative to 1% DMSO control) | lowest concentration toxic to monocytes ([2]; human, 16 h) | fold more bactericidal than RES ([4]; 50 μg/mL, at 24 hours) | antimicrobial activity over time (words) ([4]; listed as benzoyl peroxide) | lowest dose with bactericidal activity ([4]; data not shown)
Oc1ccc(C=Cc2cc(O)cc(O)c2)cc1 [RES, 3,5,4′-trihydroxystilbene] | ≥ 10 µg/mL | approximately 35% | ~1000 × dilution | 50 µg/mL | slow but sustained bactericidal activity | 75 µg/mL and 100 µg/mL | slow but sustained antimicrobial response | loss of membrane definition due to intramembranous edema and loss of well defined extracellular fimbrial structures | – | – | – | – | –
O=C(OOC(=O)c1ccccc1)c1ccccc1 [BPO, Benzoyl Peroxide] | ≥ 2.5 µg/mL | – | – | – | short but immediate bactericidal activity | – | minimal effect on bacterial growth after 24 hours | structurally identical to control | greater than 90% | 5 µg/mL | ~1000 × | virtually no activity remaining after 48 hours | 25 µg/mL
